In one data set the test system is A. thaliana leaves. Kind of data set: A. thaliana leaves cultivated in a hydroponic system, flow cytometry. Type of data set: in vivo, Arabidopsis thaliana. How it is done:
To investigate whether the tipping point can also be determined using another cultivation system, A. thaliana plants were grown in a hydroponic system and exposed to a Cd concentration range after 11 days. Since results are promising for young seedlings, it was also investigated whether the invention works in plants of different ages. Therefore, individual samples of the first and the third leaf were harvested at different time points.
LEAF 1: FIG. 11 illustrates flow cytometry data of the first A. thaliana leaf exposed to a Cd range (1-10 μM Cd) after 11 days and harvested at different time points (12-21 days). Data are expressed relative to the unexposed condition (0 μM Cd=1.0). A) Endoreplication index (EI); B) Relative ploidy level; C) Relative ratios of consecutive ploidy levels; D) EIDEFENCE; and E) EIGROWTH. One-way ANOVA compared to the unexposed condition: * p<0.05. […] As known from literature, the maximum ploidy level of young leaves is lower than in mature plants. This is confirmed by the different ploidy levels observed, see FIG. 11B: leaf 1 reaches ploidy levels up to 8C after 12 days, 16C after 14 days and the highest ploidy level of 32C was only reached after 18 days. This shift in maximum ploidy level is hypothesized to influence the tipping point. Therefore, at each age, the tipping point is identified. […] This is confirmed by increased 8C/16C ratios, see FIG. 11C.
LEAF 3: FIG. 12 illustrates flow cytometry data of the third A. thaliana leaf exposed to a Cd range (1-10 μM Cd) after 11 days and harvested at different time points (14-21 days). Data are expressed relative to the unexposed condition (0 μM Cd=1.0). A) Endoreplication index (EI); B) Relative ploidy level; C) Relative ratios of consecutive ploidy levels; D) EIDEFENCE; and E) EIGROWTH. One-way ANOVA compared to the unexposed condition: * p<0.05. […] The different ploidy levels observed confirm the lower maximum ploidy level in young leaves, see FIG. 12B: leaf 3 reaches ploidy levels up to 8C after 14 days, 16C after 18 days and 32C after 21 days. At day 14, leaf 3 was focused on normal cell division as evidenced by the elevated 2C ratio.
For orientation: Flow cytometry measures light scatter and fluorescence of single cells or particles in a stream.

The test system of another data set is Capsicum annuum. Kind of data set: Capsicum annuum hypocotyls with roots, flow cytometry (Experiment A1.3). Type of data set: in vivo. The text has this: (§1) FIGS. 14A and B illustrates from left to right: Average number of nuclei per microliter of carrier fluid; Endoreplication index (EI), for defence (EIDEFENCE) and for growth (EIGROWTH) of the analysed plant samples from different plant systems exposed to the various treatments mentioned in the table. Data are expressed relative to the first listed condition of each experiment (reference). […] In particular, the toxic effect of Cd in T. nicotiana (see Experiment A1.1) was confirmed by the present invention since EIGROWTH decreased and EIDEFENCE increased in the plant seedlings. Mitigation of this Cd-induced growth inhibition by biochar was confirmed (see Experiment A1.2). […] To optimize the growing medium for A. thaliana, different dilutions of MS medium were tested (see Experiment A1.4). […] The toxic effects of ACC (see Experiment A1.8), IAA (see Experiment A1.9) and the osmoticum PEG (simulating drought stress, see Experiment A1.10) on A. thaliana were confirmed by the present invention since EIGROWTH decreased and EIDEFENCE increased.

A further data set deals with Tobacco nicotiana. In words: Tobacco nicotiana seedlings, flow cytometry (Experiments A1.1, A1.2). Type of data set: in vivo. The conditions noted are these: plant seedlings, Cd, Experiment A1.1.
From the text: as §1

In data set [1] the test system is D. caryophyllus seedlings. Kind of data set: D. caryophyllus seedlings in 48-well microtiter plate with 1/4 MS medium, flow cytometry. The conditions noted are these: 9 days. Type of data set: in vivo, Dianthus caryophyllus. The procedure:
Since results are promising for young seedlings of A. thaliana, it was also investigated whether the invention works in other plant species. To investigate whether the tipping point can also be determined using another plant species, tetraploid D. caryophyllus plants (i.e., basic ploidy level is 4C) were grown in a 48-well microtiter plate with ¼ MS medium and exposed to a Cd concentration range between 0 and 50 μM Cd. FIG. 13 illustrates flow cytometry data of D. caryophyllus seedlings exposed to a Cd range (10-50 μM Cd) and harvested after 9 days. Data are expressed relative to the control condition shown by the horizontal line (1.0). A) Average number of nuclei per microliter of carrier fluid; B) Endoreplication index (EI); C) Relative ploidy level; D) Relative ratios of consecutive ploidy levels; E) EIDEFENCE; and F) EIGROWTH. One-way ANOVA compared to the unexposed condition: * p<0.05.

[2] abbreviates: toxic treatments, Experiments A1.8-A1.11.
[3] abbreviates: Cd 10-50 μM, 4C as tipping point.

This note sets out measurements from patent US20240302356A1, “METHOD FOR DETERMINING A TOXICITY AND/OR GROWTH PROMOTION EFFECT OF A TREATMENT OR COMPOUND” (priority 2021, published 2024).

Each structure is given as a SMILES string. Where two headings read alike, the source gives them in different places.

In the case of `NC1(C(=O)O)CC1` [ACC], in the data set on Arabidopsis thaliana (setting [2]), the EIDEFENCE entry is given as “increased” and the EIGROWTH entry was “decreased”.
As for `[Cd]` [Cd, cadmium], the EI result in the data set on A. thaliana leaves (leaf 1, 1-10 μM Cd for 3 days or more (14-days-old plants or older)) was “dose-dependent decrease”; with A. thaliana leaves (leaf 3, 1-10 μM Cd, FIG. 12A) it was “dose-dependent decrease”; in data set [1] (50 μM Cd), “decrease”. Besides, the EIDEFENCE entry in the data set with A. thaliana leaves (leaf 1, 1-10 μM Cd, FIG. 11D) was “elevated values”; with A. thaliana leaves (leaf 3, 1-10 μM Cd, FIG. 12D) it was “elevated values”; in the data set on Tobacco nicotiana it was “increased”; in data set [1] (setting [3]) it was “elevated values”; in the data set with Arabidopsis thaliana (30 μM Cd or more, 10 days) it was “significant and dose-dependent increases”; in the data set with Arabidopsis thaliana (in vivo), “dose-dependent increase”. Further, the EIDEFENCE result in the data set with Arabidopsis thaliana (setting [2]) is listed as “increased”. Also, the EIGROWTH result in the data set on A. thaliana leaves (leaf 1, 1-10 μM Cd, FIG. 11E) is reported as “decreased values”; with A. thaliana leaves (leaf 3, 1-10 μM Cd, FIG. 12E), “decreased values”; in the data set on Tobacco nicotiana it was “decreased”; in data set [1] (setting [3]) it was “decreased values”; with Arabidopsis thaliana (in vivo), “less pronounced dose-dependent decrease”; in the data set on Arabidopsis thaliana (setting [2]), “decreased”. For the same compound, the “EI or ploidy levels” value with A. thaliana leaves (leaf 1, one day of exposure to Cd (12-days-old plants)) is on record as “did not show significant changes”. Besides, the toxic effect result in the data set with Capsicum annuum was “could be confirmed”. Moreover, the nuclei concentration result in data set [1] (50 μM Cd) was “decrease”. For the same compound, the “number of nuclei per microliter (plant growth)” value with Arabidopsis thaliana (Cd concentrations from 30 µM or higher, 10 days) is reported as “significant decrease”. In addition, in the data set on Arabidopsis thaliana (in vivo), the “growth (concentration of nuclei)” value is “dose-dependent growth retardation”. For the same compound, the “endoreplication index EI” value in the data set on Arabidopsis thaliana (seedlings in MS medium, Cd concentration range 0-50 μM, FIG. 10B) is “dose-dependent induction in endoreplication”.
With `C=C1C[C@]23C[C@@]1(O)CC[C@H]2[C@@]12C=C[C@H](O)[C@@](C)(C(=O)O1)[C@H]2[C@@H]3C(=O)O` [GA3], the “growth-stimulating effect by EI indices” value in the data set with Arabidopsis thaliana (Experiments A1.5-A1.7) was “EIGROWTH increased and/or EIDEFENCE decreased”. Further, the “concentration at which a shift towards toxicity was detected (both EI indices showing an opposite trend)” value in the data set with Arabidopsis thaliana (increasing concentrations, Experiment A1.7) is 3 mg I-1.
`O=C(O)Cc1c[nH]c2ccccc12` [IAA]: in the data set with Arabidopsis thaliana (setting [2]), the EIDEFENCE entry is listed as “increased” and the EIGROWTH entry is “decreased”.
